In patent US4185016A, “Pyrrolo benzodiazepine compounds” (priority 1977, dated 1980):
Like-named read-outs stand apart in the source and are kept apart here.

Columns and labels:
[1] = in vivo; design: species or system DD strain male mice; conditions: mouse, ip
Experimental: LD50 values of the compounds of this invention were determined by the use of DD strain male mice having body weight of 18 to 20 g, 5 heads per one group. Each test compound was dissolved into physiological solution of sodium chloride containing 1% dimethyl sulfoxide and administered intraperitoneally to the animals. The dose levels were 20 mg/kg, 16.7 mg/kg, 13.9 mg/kg, 11.6 mg/kg and 9.6 mg/kg. One week after the administration, LD50 was determined.
(§1) The compounds used in the antitumor activity test and the acute toxicity test were the aforementioned novel compounds. The results of tests concerning the compounds of general formula (I) are listed in Table 1, while those concerning the compounds of general formula (II) are listed in Table 2.

[2] = U.S. Pat. No. 3,361,742 and J. Am. Chem. Soc., 87, 5791-5793 (1965); cited from earlier work
[3] = U.S. Pat. No. 3,361,742 and J. Am. Chem. Soc., 87, 5791-5793 (1965); cited from earlier work; remark: listed apart in the source
[4] = tested on: Leukaemia P388; format: in vivo, CDF1 male mice; conditions: ip
From the text: CDF1 male mice having body weight of 18 to 20 g, 10 heads per one group, were inoculated with 2×10^5 cells/mouse Leukaemia P388. Twenty four hours after the inoculation, an appointed dose of test compound was intraperitoneally administered to the animals of administration group, after which the administration was repeated for successive 6 days. The survival day numbers of the animals were counted.
Survival time of the animals was expressed by average survival day number.
as §1

[5] = intraperitoneal, one week after administration, read-out: Acute toxicity LD50

`COC1Nc2c(ccc(C)c2O)C(=O)N2CCCC12` (centres unmarked) [4, 11] gave an LD50 at 168 h [1] of 13.8 mg/kg.
In the case of `Cc1ccc2c(c1O)NC(O)C1CC(/C=C/C(N)=O)=CN1C2=O` (centres unmarked) [5,10,11,11a-tetrahydro-9,11-dihydroxy-8-methyl-5-oxo-1H-pyrrolo[2,1-C][1,4]-benzodiazepin-2-acrylamide], the antitumor activity [2] is listed as “antitumor” and the antibacterial activity [3] is listed as “antibacterial”.
For `COC1Nc2c(O)cccc2C(=O)N2CCCC12` (centres unmarked) [5, 13], the “Antitumor activity, Life-prolongation rate” value ([4]; 2.5 mg/kg) was 127.0%, the “Antitumor activity, Life-prolongation rate” value ([4]; 5 mg/kg) was 148.0% and the LD50 at 168 h [1, 5] was 12.8 mg/kg.
Work on `COc1ccc2c(c1O)NC(OC)C1CCCN1C2=O` (centres unmarked) [15, 6] yielded an LD50 at 168 h [1, 5] of 12.7 mg/kg.
With `COC1Nc2c(ccc(C)c2OC(C)=O)C(=O)N2CCCC12` (centres unmarked) [17, 21] the “Antitumor activity, Life-prolongation rate” value ([4]; 2.5 mg/kg) was 125.0%, the “Antitumor activity, Life-prolongation rate” value ([4]; 5 mg/kg) was 149.0% and the LD50 at 168 h [1, 5] was 13.9 mg/kg.
Work on `CC(=O)Oc1c(C)ccc2c1N=CC1CCCN1C2=O` (centres unmarked) [20, 19] yielded an LD50 at 168 h [1, 5] of 12.8 mg/kg.
For `COC1Nc2c(OC(C)=O)cccc2C(=O)N2CCCC12` (centres unmarked) [24, 33], the “Antitumor activity, Life-prolongation rate” value ([4]; 2.5 mg/kg) was 121.6%, the “Antitumor activity, Life-prolongation rate” value ([4]; 5 mg/kg) was 143.8% and the LD50 at 168 h [1, 5] was 12.4 mg/kg.
Work on `CCOC1Nc2c(ccc(C)c2O)C(=O)N2CCCC12` (centres unmarked) [Example 7, 2,3,5,10,11,11a-hexahydro-11-ethoxy-9-hydroxy-8-methyl-1H-pyrrolo[2,1-C][1,4]benzodiazepin-5-one] yielded an LD50 at 168 h [1, 5] of 13.3 mg/kg.
For `Cc1ccc2c(c1O)N=CC1CCCN1C2=O` (centres unmarked) [Example 8, 2,3,5,11a-tetrahydro-9-hydroxy-8-methyl-1H-pyrrolo[2,1-C][1,4]benzodiazepin-5-one], the “Antitumor activity, Life-prolongation rate” value ([4]; 2.5 mg/kg) was 126.7%, the “Antitumor activity, Life-prolongation rate” value ([4]; 5 mg/kg) was 148.7% and the LD50 at 168 h [1, 5] was 13.6 mg/kg.
`O=C1c2cccc(O)c2N=CC2CCCN12` (centres unmarked) [Example 9, 2,3,5,11a-tetrahydro-9-hydroxy-1H-pyrrolo[2,1-C][1,4]benzodiazepin-5-one] showed an LD50 at 168 h [1, 5] of 13.1 mg/kg.
In the case of `COc1ccc2c(c1O)N=CC1CCCN1C2=O` (centres unmarked) [Example 10, 2,3,5,11a-tetrahydro-9-hydroxy-8-methoxy-1H-pyrrolo[2,1-C][1,4]benzodiazepin-5-one], the “Antitumor activity, Life-prolongation rate” value ([4]; 2.5 mg/kg) is reported as 126.7%, the “Antitumor activity, Life-prolongation rate” value ([4]; 5 mg/kg) is reported as 145.6% and the LD50 at 168 h [1, 5] is reported as 13.3 mg/kg.
Compound `Cc1ccc2c(c1O)NC(O)C1CCCN1C2=O` (centres unmarked) [Example 12, 2,3,5,10,11,11a-hexahydro-9,11-dihydroxy-8-methyl-1H-pyrrolo[2,1-C][1,4]benzodiazepin-5-one] has an LD50 at 168 h [1, 5] of 12.9 mg/kg.
`O=C1c2cccc(O)c2NC(O)C2CCCN12` (centres unmarked) [Example 14, 2,3,5,10,11,11a-hexahydro-9,11-dihydroxy-1H-pyrrolo[2,1-C][1,4]benzodiazepin-5-one] showed an LD50 at 168 h [1, 5] of 12.5 mg/kg.
`COc1ccc2c(c1O)NC(O)C1CCCN1C2=O` (centres unmarked) [Example 16, 2,3,5,10,11,11a-hexahydro-9,11-dihydroxy-8-methoxy-1H-pyrrolo[2,1-C][1,4]benzodiazepin-5-one] gave an LD50 at 168 h [1, 5] of 12.6 mg/kg.
For `CCOC1Nc2c(ccc(C)c2OC(C)=O)C(=O)N2CCCC12` (centres unmarked) [Example 18, 2,3,5,10,11,11a-hexahydro-9-acetoxy-11-ethoxy-8-methyl-1H-pyrrolo[2,1-C][1,4]benzodiazepin-5-one], the LD50 at 168 h [1, 5] was 12.8 mg/kg.
Compound `CC(=O)Oc1c(C)ccc2c1NC(O)C1CCCN1C2=O` (centres unmarked) [Example 22, 2,3,5,10,11,11a-hexahydro-9-acetoxy-11-hydroxy-8-methyl-1H-pyrrolo[2,1-C][1,4]benzodiazepin-5-one] has an LD50 at 168 h [1, 5] of 13.5 mg/kg.
`CC(=O)Oc1cccc2c1NC(O)C1CCCN1C2=O` (centres unmarked) [Example 23, 2,3,5,10,11,11a-hexahydro-9-acetoxy-11-hydroxy-1H-pyrrolo[2,1-C][1,4]-benzodiazepin-5-one] gave an LD50 at 168 h [1, 5] of 12.7 mg/kg.
In the case of `CCOC1Nc2c(O)cccc2C(=O)N2CCCC12` (centres unmarked) [Example 25, 2,3,5,10,11,11a-hexahydro-11-ethoxy-9-hydroxy-1H-pyrrolo[2,1-C][1,4]benzodiazepin-5-one], the LD50 at 168 h [1, 5] is reported as 13 mg/kg.
With `CCOC1Nc2c(OC(C)=O)cccc2C(=O)N2CCCC12` (centres unmarked) [Example 26, 2,3,5,10,11,11a-hexahydro-9-acetoxy-11-ethoxy-1H-pyrrolo[2,1-C][1,4]benzodiazepin-5-one] the LD50 at 168 h [1, 5] was 13.2 mg/kg.
Work on `COc1ccc2c(c1OC(C)=O)NC(O)C1CCCN1C2=O` (centres unmarked) [Example 27, 2,3,5,10,11,11a-hexahydro-9-acetoxy-11-hydroxy-8-methoxy-1H-pyrrolo[2,1-C][1,4]benzodiazepin-5-one] yielded an LD50 at 168 h [1, 5] of 12.4 mg/kg.
Work on `COc1ccc2c(c1OC(C)=O)NC(OC)C1CCCN1C2=O` (centres unmarked) [Example 28, 2,3,5,10,11,11a-hexahydro-9-acetoxy-8,11-dimethoxy-1H-pyrrolo[2,1-C][1,4]benzodiazepin-5-one] yielded an LD50 at 168 h [1, 5] of 12.3 mg/kg.
For `CCOC1Nc2c(ccc(OC)c2O)C(=O)N2CCCC12` (centres unmarked) [Example 29, 2,3,5,10,11,11a-hexahydro-11-ethoxy-9-hydroxy-8-methoxy-1H-pyrrolo[2,1-C][1,4]benzodiazepin-5-one], the “Antitumor activity, Life-prolongation rate” value ([4]; 2.5 mg/kg) was 123.3%, the “Antitumor activity, Life-prolongation rate” value ([4]; 5 mg/kg) was 141.4% and the LD50 at 168 h [1, 5] was 12.2 mg/kg.
`CCOC1Nc2c(ccc(OC)c2OC(C)=O)C(=O)N2CCCC12` (centres unmarked) [Example 30, 2,3,5,10,11,11a-hexahydro-9-acetoxy-11-ethoxy-8-methoxy-1H-pyrrolo[2,1-C][1,4]benzodiazepin-5-one] gave an LD50 at 168 h [1, 5] of 12.7 mg/kg.
Compound `CC(=O)Oc1cccc2c1N=CC1CCCN1C2=O` (centres unmarked) [Example 31, 2,3,5,11a-tetrahydro-9-acetoxy-1H-pyrrolo[2,1-C][1,4]benzodiazepin-5-one] has an LD50 at 168 h [1, 5] of 13.4 mg/kg.
Work on `COc1ccc2c(c1OC(C)=O)N=CC1CCCN1C2=O` (centres unmarked) [Example 32, 2,3,5,11a-tetrahydro-9-acetoxy-8-methoxy-1H-pyrrolo[2,1-C][1,4]benzodiazepin-5-one] yielded an LD50 at 168 h [1, 5] of 13.7 mg/kg.
